# From ChEMBL document CHEMBL1201862, “PubChem BioAssay data set” (2004)
#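 In this assay, cells in 96-well plates receive the compound at five concentrations for 48 hours. Endpoints are linearly interpolated between the surrounding concentrations. The concentration for 50% growth inhibition is given as GI50.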 The source made the active and inactive calls. Rule as the data show it: active = GI50 up to about 1.1 µM and inactive = higher.
# How the values were obtained:
# Assay in all cases: inhibition of tumour cell growth, NCI panel, 48 h
# [1] = test system: A549
# [2] = test system: CCRF-CEM
# [3] = test system: HT-29
# [4] = test system: K562
# [5] = test system: LOX IMVI
# [6] = test system: MDA-MB-231
# [7] = test system: MDA-N
# [8] = test system: OVCAR-3
# [9] = test system: OVCAR-4
# [10] = test system: OVCAR-5
# [11] = test system: RPMI-8226
# [12] = test system: SK-MEL-28
# [13] = test system: SK-MEL-5
# [14] = test system: SK-OV-3
# [15] = test system: SNB-75
# [16] = test system: SR
# [17] = test system: U-251
# [18] = test system: UO-31
# [19] = test system: BT-549
Compound,GI50 [1],GI50 [2],GI50 [3],GI50 [4],GI50 [5],GI50 [6],GI50 [7],GI50 [8],GI50 [9],GI50 [10],GI50 [11],GI50 [12],GI50 [13],GI50 [14],GI50 [15],GI50 [16],GI50 [17],GI50 [18],GI50 [19]
COc1ccccc1CC(=O)C(O)(C(F)(F)F)C(F)(F)F,> 100 µM (inactive),> 100 µM (inactive),> 100 µM (inactive),> 100 µM (inactive),> 100 µM (inactive),> 100 µM (inactive),> 100 µM (inactive),> 100 µM (inactive),> 100 µM (inactive),> 100 µM (inactive),> 100 µM (inactive),> 100 µM (inactive),> 100 µM (inactive),> 100 µM (inactive),12.7 µM (inactive),> 100 µM (inactive),> 100 µM (inactive),> 100 µM (inactive),–
C/C(=N/NC(=O)c1ccncc1)c1ccc(NC(=O)C(=O)Nn2c(S)nc3ccccc3c2=O)cc1,> 100 µM (inactive),> 100 µM (inactive),> 100 µM (inactive),–,> 100 µM (inactive),> 100 µM (inactive),–,> 100 µM (inactive),> 100 µM (inactive),> 100 µM (inactive),> 100 µM (inactive),> 100 µM (inactive),> 100 µM (inactive),> 100 µM (inactive),> 100 µM (inactive),> 100 µM (inactive),> 100 µM (inactive),> 100 µM (inactive),> 100 µM (inactive)
CC(C)N(/C(F)=N\C(=O)Nc1ccccc1C(F)(F)F)C(C)C,52.1 µM (inactive),37.9 µM (inactive),40.2 µM (inactive),35.8 µM (inactive),32 µM (inactive),47.3 µM (inactive),66.5 µM (inactive),32 µM (inactive),–,> 100 µM (inactive),24.4 µM (inactive),81.5 µM (inactive),38.4 µM (inactive),33.7 µM (inactive),> 100 µM (inactive),28.5 µM (inactive),43.4 µM (inactive),45 µM (inactive),–
COc1ccc(CCNC(=O)CCCCCO)cc1OC,> 100 µM (inactive),> 100 µM (inactive),> 100 µM (inactive),> 100 µM (inactive),–,> 100 µM (inactive),–,> 100 µM (inactive),> 100 µM (inactive),> 100 µM (inactive),> 100 µM (inactive),> 100 µM (inactive),> 100 µM (inactive),> 100 µM (inactive),> 100 µM (inactive),> 100 µM (inactive),> 100 µM (inactive),> 100 µM (inactive),> 100 µM (inactive)
CN1C(NCCO)=NS(=O)(=O)c2ccccc21,> 100 µM (inactive),> 100 µM (inactive),> 100 µM (inactive),> 100 µM (inactive),> 100 µM (inactive),> 100 µM (inactive),–,> 100 µM (inactive),> 100 µM (inactive),> 100 µM (inactive),–,> 100 µM (inactive),> 100 µM (inactive),> 100 µM (inactive),–,8.75 µM (inactive),> 100 µM (inactive),> 100 µM (inactive),> 100 µM (inactive)
Cc1ccnc(NC(=S)Nc2ccc([N+](=O)[O-])cc2)c1,–,> 100 µM (inactive),> 100 µM (inactive),> 100 µM (inactive),> 100 µM (inactive),–,–,–,> 100 µM (inactive),–,> 100 µM (inactive),> 100 µM (inactive),> 100 µM (inactive),37.9 µM (inactive),44.6 µM (inactive),> 100 µM (inactive),49 µM (inactive),> 100 µM (inactive),> 100 µM (inactive)
CCOC(=O)C1CCC(=O)N1C(=O)c1ccccc1 (stereo unspecified),> 100 µM (inactive),> 100 µM (inactive),> 100 µM (inactive),> 100 µM (inactive),92.3 µM (inactive),> 100 µM (inactive),–,> 100 µM (inactive),–,> 100 µM (inactive),> 100 µM (inactive),> 100 µM (inactive),> 100 µM (inactive),–,–,> 100 µM (inactive),> 100 µM (inactive),> 100 µM (inactive),> 100 µM (inactive)
CC(C)(C)C(=O)C(C#N)C(=O)C(C)(C)C,> 100 µM (inactive),> 100 µM (inactive),> 100 µM (inactive),> 100 µM (inactive),> 100 µM (inactive),> 100 µM (inactive),> 100 µM (inactive),> 100 µM (inactive),> 100 µM (inactive),> 100 µM (inactive),> 100 µM (inactive),> 100 µM (inactive),> 100 µM (inactive),> 100 µM (inactive),> 100 µM (inactive),0.0697 µM (active),> 100 µM (inactive),> 100 µM (inactive),–
Cc1ccc2c(c1)C(=O)C1(Cc3ccccc3C1=O)C2 (stereo unspecified),> 100 µM (inactive),> 100 µM (inactive),> 100 µM (inactive),> 100 µM (inactive),> 100 µM (inactive),> 100 µM (inactive),> 100 µM (inactive),> 100 µM (inactive),> 100 µM (inactive),> 100 µM (inactive),> 100 µM (inactive),> 100 µM (inactive),> 100 µM (inactive),31.2 µM (inactive),67.1 µM (inactive),> 100 µM (inactive),> 100 µM (inactive),1.86 µM (inactive),–
COc1ccccc1NC(=S)N/N=C/c1c(C)n(C)n(-c2ccccc2)c1=O,–,> 100 µM (inactive),> 100 µM (inactive),> 100 µM (inactive),49.8 µM (inactive),> 100 µM (inactive),–,–,> 100 µM (inactive),–,> 100 µM (inactive),> 100 µM (inactive),> 100 µM (inactive),35.3 µM (inactive),49 µM (inactive),51.6 µM (inactive),> 100 µM (inactive),> 100 µM (inactive),> 100 µM (inactive)
COc1ccc2c(c1)N(C(C)=O)CN1C(=O)CCC21 (stereo unspecified),> 100 µM (inactive),41.7 µM (inactive),> 100 µM (inactive),79.6 µM (inactive),> 100 µM (inactive),> 100 µM (inactive),> 100 µM (inactive),> 100 µM (inactive),> 100 µM (inactive),> 100 µM (inactive),49.3 µM (inactive),> 100 µM (inactive),> 100 µM (inactive),> 100 µM (inactive),> 100 µM (inactive),–,> 100 µM (inactive),> 100 µM (inactive),–
O=C(CC(C(=O)c1ccsc1)c1cccs1)c1ccccc1 (stereo unspecified),15.6 µM (inactive),80.4 µM (inactive),82.8 µM (inactive),> 100 µM (inactive),78 µM (inactive),56.8 µM (inactive),> 100 µM (inactive),> 100 µM (inactive),18.3 µM (inactive),> 100 µM (inactive),> 100 µM (inactive),> 100 µM (inactive),70.5 µM (inactive),> 100 µM (inactive),23.7 µM (inactive),76.9 µM (inactive),98.9 µM (inactive),19.2 µM (inactive),–
N#Cc1sc2c(c1OC(=O)c1ccc(Cl)cc1Cl)c(=O)n(-c1ccccc1)c(=S)n2-c1ccccc1,30.5 µM (inactive),4.85 µM (inactive),18.2 µM (inactive),17.1 µM (inactive),19.2 µM (inactive),22.8 µM (inactive),–,19.2 µM (inactive),21.5 µM (inactive),50.7 µM (inactive),31.7 µM (inactive),> 100 µM (inactive),16.6 µM (inactive),32.7 µM (inactive),20.8 µM (inactive),> 100 µM (inactive),15.4 µM (inactive),0.13 µM (active),–
C/C=C/C(=O)N1C(=O)OC[C@@H]1c1ccccc1,19.1 µM (inactive),23 µM (inactive),19.2 µM (inactive),22.8 µM (inactive),18.2 µM (inactive),22 µM (inactive),20.7 µM (inactive),18 µM (inactive),23 µM (inactive),17.4 µM (inactive),26.1 µM (inactive),21.5 µM (inactive),18.7 µM (inactive),18.2 µM (inactive),12.8 µM (inactive),–,23.1 µM (inactive),19.5 µM (inactive),–
Cc1ccc(S(=O)(=O)N/N=C2\CC3C4C=CC3C2C4)cc1 (stereo unspecified),> 100 µM (inactive),> 100 µM (inactive),> 100 µM (inactive),> 100 µM (inactive),> 100 µM (inactive),> 100 µM (inactive),> 100 µM (inactive),> 100 µM (inactive),> 100 µM (inactive),> 100 µM (inactive),–,> 100 µM (inactive),> 100 µM (inactive),> 100 µM (inactive),–,–,> 100 µM (inactive),21 µM (inactive),–
Cn1c(=O)c(Br)c(C=O)n(CCO[N+](=O)[O-])c1=O,16.1 µM (inactive),1.62 µM (inactive),–,2.66 µM (inactive),2.14 µM (inactive),2.53 µM (inactive),4.23 µM (inactive),–,–,3.88 µM (inactive),2.26 µM (inactive),2.07 µM (inactive),11.2 µM (inactive),18.5 µM (inactive),12.2 µM (inactive),2.16 µM (inactive),3.02 µM (inactive),> 10 µM (inactive),–
Cc1noc(C)c1/N=N/c1ccc2nonc2c1N,> 100 µM (inactive),> 100 µM (inactive),> 100 µM (inactive),> 10 µM (inactive),> 100 µM (inactive),> 100 µM (inactive),> 100 µM (inactive),> 100 µM (inactive),> 100 µM (inactive),> 100 µM (inactive),> 100 µM (inactive),> 100 µM (inactive),> 100 µM (inactive),36.7 µM (inactive),15.1 µM (inactive),> 100 µM (inactive),–,21 µM (inactive),–
